# Tested on: Triticum aestivum (TRZAS)
# Assay: Post-emergence crop plant compatibility, greenhouse pot trial
# Format: in vivo
# Conditions: 20 g/ha, post-emergence, in comparison to untreated controls
# Description: (§1) Seeds of monocotyledonous and dicotyledonous weeds and crop plants are placed in sandy loam in plastic or organic planting pots, covered with soil and cultivated in a greenhouse under controlled growth conditions. 2 to 3 weeks after sowing, the trial plants are treated at the one-leaf stage. The compounds of the invention, formulated in the form of wettable powders (WP) or as emulsion concentrates (EC), are then sprayed onto the green parts of the plants as aqueous suspension or emulsion with addition of 0.5% additive at a water application rate equivalent to 600 l/ha. After about 3 weeks of keeping the trial plants in the greenhouse under optimum growth conditions, the effect of the preparations is rated visually in comparison to untreated controls. For example, 100% activity=the plants have died, 0% activity=like control plants.
# (§2) The observed effects on selected crop plants are reported here in comparison to the untreated controls (values in %). The appendices “a”, “b” and “c” give differentiation by dosage used with otherwise the same useful plants tested.
# (§3) As shown by results from Tables B1 to B19, inventive compounds of the general formula (I) in the case of post-emergence treatment have good herbicidal efficacy against harmful plants, for example Abutilon theophrasti (ABUTH), Alopecurus myosuroides (ALOMY), Amaranthus retroflexus (AMARE), Avena fatua (AVEFA), Digitaria sanguinalis (DIGSA), Echinochloa crus-galli (ECHCG), Bassia scoparia (KCHSC), Lolium rigidum (LOLRI), Matricaria inodora (MATIN), Pharbitis purpurea (PHBPU), Polygonum convolvulus (POLCO), Setaria viridis (SETVI), Veronica persica (VERPE) and Viola tricolor (VIOTR) at an application rate of 320 g of active substance or less per hectare, and good crop plant compatibility in the case of organisms such as Oryza sativa (ORYSA), Zea mays (ZEAMX), Brassica napus (BRSNW), Glycine max (GLXMA) and Triticum aestivum (TRZAS) at an application rate of 320 g or less per hectare.
row,Structure (SMILES),Post-emergence effect against TRZAS (crop plant compatibility) [%]
1,"COC(=O)CCOC(=O)C(Oc1nn(-c2ncccc2F)c(-c2ccc(F)nc2)c1Br)SC (single isomer, unassigned) [Example I-22]",0

# Tested on: Zea mays (ZEAMX)
# Assay: as above
# Format: in vivo
# Conditions: 20 g/ha, in comparison to untreated controls
# Description: as §1, §2, §3
row,Structure (SMILES),Post-emergence effect against ZEAMX (crop plant compatibility) [%]
1,"COC(=O)CCOC(=O)C(Oc1nn(-c2ncccc2F)c(-c2ccc(F)nc2)c1Br)SC (single isomer, unassigned) [Example I-22]",0

# Tested on: Setaria viridis (SETVI)
# Assay: Post-emergence herbicidal action, greenhouse pot trial
# Format: in vivo
# Conditions: 320 g/ha, visual rating after about 3 weeks
# Procedure, shortened: (§4)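 Visual % activity versus untreated controls (100% = plants died, 0% = like control), scored about 3 weeks post-spray. Plants grown in sandy loam pots under greenhouse conditions were treated at the one-leaf stage with WP or EC formulations at 320 g/ha or lower.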
row,Structure (SMILES),Post-emergence effect at 320 g/ha against SETVI in % [%]
1,"COC(=O)CCOC(=O)C(Oc1nn(-c2ncccc2F)c(-c2ccc(F)nc2)c1Br)SC (single isomer, unassigned) [Example I-22]",80

# Tested on: Bassia scoparia (KCHSC)
# Assay: as above
# Format: in vivo
# Conditions: 320 g/ha
# Procedure, shortened: as §4
row,Structure (SMILES),Post-emergence effect against KCHSC [%]
1,"COC(=O)CCOC(=O)C(Oc1nn(-c2ncccc2F)c(-c2ccc(F)nc2)c1Br)SC (single isomer, unassigned) [Example I-22]",90

# Tested on: Pharbitis purpurea (PHBPU)
# Assay: as above
# Format: in vivo
# Conditions: 20 g/ha, visual rating after about 3 weeks
# Procedure, shortened: as §4
row,Structure (SMILES),Post-emergence effect at 20 g/ha against PHBPU in % [%]
1,"COC(=O)CCOC(=O)C(Oc1nn(-c2ncccc2F)c(-c2ccc(F)nc2)c1Br)SC (single isomer, unassigned) [Example I-22]",80

# Same assay, conditions: 80 g/ha, visual rating after about 3 weeks
row,Structure (SMILES),Post-emergence effect at 80 g/ha against PHBPU in % [%]
1,"COC(=O)CCOC(=O)C(Oc1nn(-c2ncccc2F)c(-c2ccc(F)nc2)c1Br)SC (single isomer, unassigned) [Example I-22]",90

# Same assay, conditions: 320 g/ha, visual rating after about 3 weeks
row,Structure (SMILES),Post-emergence effect at 320 g/ha against PHBPU in % [%]
1,"COC(=O)CCOC(=O)C(Oc1nn(-c2ncccc2F)c(-c2ccc(F)nc2)c1Br)SC (single isomer, unassigned) [Example I-22]",90

# Tested on: Abutilon theophrasti (ABUTH)
# Assay: as above
# Format: in vivo
# Conditions: 80 g/ha, visual rating after about 3 weeks
# Procedure, shortened: as §4
row,Structure (SMILES),Post-emergence effect at 80 g/ha against ABUTH in % [%]
1,"COC(=O)CCOC(=O)C(Oc1nn(-c2ncccc2F)c(-c2ccc(F)nc2)c1Br)SC (single isomer, unassigned) [Example I-22]",90

# Same assay, conditions: 320 g/ha, visual rating after about 3 weeks
row,Structure (SMILES),Post-emergence effect at 320 g/ha against ABUTH in % [%]
1,"COC(=O)CCOC(=O)C(Oc1nn(-c2ncccc2F)c(-c2ccc(F)nc2)c1Br)SC (single isomer, unassigned) [Example I-22]",90

# Tested on: Polygonum convolvulus (POLCO)
# Assay: as above
# Format: in vivo
# Conditions: 80 g/ha, visual rating after about 3 weeks
# Procedure, shortened: as §4
row,Structure (SMILES),Post-emergence effect at 80 g/ha against POLCO in % [%]
1,"COC(=O)CCOC(=O)C(Oc1nn(-c2ncccc2F)c(-c2ccc(F)nc2)c1Br)SC (single isomer, unassigned) [Example I-22]",90

# Same assay, conditions: 320 g/ha, visual rating after about 3 weeks
row,Structure (SMILES),Post-emergence effect at 320 g/ha against POLCO in % [%]
1,"COC(=O)CCOC(=O)C(Oc1nn(-c2ncccc2F)c(-c2ccc(F)nc2)c1Br)SC (single isomer, unassigned) [Example I-22]",90

# Tested on: Viola tricolor (VIOTR)
# Assay: as above
# Format: in vivo
# Conditions: 20 g/ha
# Procedure, shortened: as §4
row,Structure (SMILES),Post-emergence effect against VIOTR [%]
1,"COC(=O)CCOC(=O)C(Oc1nn(-c2ncccc2F)c(-c2ccc(F)nc2)c1Br)SC (single isomer, unassigned) [Example I-22]",80

# Same assay, conditions: 80 g/ha
row,Structure (SMILES),Post-emergence effect against VIOTR [%]
1,"COC(=O)CCOC(=O)C(Oc1nn(-c2ncccc2F)c(-c2ccc(F)nc2)c1Br)SC (single isomer, unassigned) [Example I-22]",90

# Same assay, conditions: 320 g/ha
row,Structure (SMILES),Post-emergence effect against VIOTR [%]
1,"COC(=O)CCOC(=O)C(Oc1nn(-c2ncccc2F)c(-c2ccc(F)nc2)c1Br)SC (single isomer, unassigned) [Example I-22]",90

# Tested on: Echinochloa crus-galli (ECHCG)
# Assay: as above
# Format: in vivo
# Conditions: 320 g/ha, visual rating after about 3 weeks
# Procedure, shortened: as §4
row,Structure (SMILES),Post-emergence effect at 320 g/ha against ECHCG in % [%]
1,"COC(=O)CCOC(=O)C(Oc1nn(-c2ncccc2F)c(-c2ccc(F)nc2)c1Br)SC (single isomer, unassigned) [Example I-22]",90

# Tested on: Amaranthus retroflexus (AMARE)
# Assay: as above
# Format: in vivo
# Conditions: 320 g/ha, visual rating after about 3 weeks
# Procedure, shortened: as §4
row,Structure (SMILES),Post-emergence effect at 320 g/ha against AMARE in % [%]
1,"COC(=O)CCOC(=O)C(Oc1nn(-c2ncccc2F)c(-c2ccc(F)nc2)c1Br)SC (single isomer, unassigned) [Example I-22]",80
